Assay results taken from patent US20050197372A1 (priority 2002, published 2005).

Assays:
[1] = tested on: platelets (agglutination with fibrinogen-coated beads); assay: Ultegra rapid platelet-function assay (RPFA-ASA); assay type: cell-based, human; settings: baseline 159 ± 27
Method: (§1) None of them received aspirin or any other anti-platelet agents. All subjects underwent blood sampling after at least 30 minutes of rest and 2 or more hours of fasting. Blood was drawn between 8 and 10 a.m. in order to avoid any diurnal influence and sampled from an antecubital vein using a 21-gauge butterfly needle containing 3.8% sodium citrate (1:9 volume) after having discarded the first 1.5 ml of free running blood. Eleven Vacutainer tubes (4.5 ml) were collected for a total of 49 ml of whole blood-citrate mixture from each study participant. One tube was kept as an internal control and was incubated with buffer solution. […] To avoid possible observer bias, blood samples were coded and blinded. Sampling procedures, and platelet studies were performed by individuals unaware of the protocol.
A rapid platelet-function assay cartridge test (RPFA-ASA, Ultegra® Accumetrics, Inc., San Diego, Calif., USA), using polystyrene beads coated cartridges with lyophilized human fibrinogen-coated microparticles, and propyl gallat served as an agonist. The whole blood citrate mixture was added to the cartridge, and agglutination between platelets and coated beads was recorded. The data mirrored turbidometric platelet aggregation and reflected the degree of platelet prostaglandin blockade. Smith J W, et al., Circulation 1999; 99: 620-625. Ultegra® assays were performed in duplicate. An electronic quality control test was performed on each instrument every day of use prior to performing any subject samples.

[2] = tested on: human platelets in whole blood; assay: Whole blood impedance platelet aggregation induced by collagen; assay type: cell-based; settings: for Whole blood impedance platelet aggregation induced by 1 μg/ml collagen: 60 minutes at 37° C., baseline 29 ± 7
Method: as §1
The methods are described in detail in Abbate R, et al., Amer J Clin Pathol 1986; 86: 91-96. Briefly, the whole blood citrate mixture was diluted 1:1 with 0.5 ml TBS, then swirled gently. The cuvette with the stirring bar was placed in the incubation well and allowed to warm to 37° C. for 5 minutes. Then the sample was transferred to the assay well. An electrode was placed in the sample cuvette. Platelet aggregation was stimulated with 1 μg/ml collagen. Platelet aggregation studies were performed using a Chrono-Log Whole Blood Aggregometer using Aggrolink” software. Platelet aggregability was expressed as the change in electrical impedance and is expressed in ohms.

[3] = tested on: platelet/endothelial tetraspan antigen -3 (PETA-3, CD151); assay: Whole blood flow cytometry, PETA-3 expression; assay type: cell-based, human; settings: for Expression of platelet/endothelial tetraspan antigen -3 (PETA-3, CD151): baseline 88.7 ± 24.2
Method: as §1
(§2) The expression of platelet receptors was determined by using the following monoclonal antibodies: CD31 (platelet endothelial cell adhesion molecule (PECAM-1), CD41 (glycoprotein [GP] IIb/IIIa, (IIb (3), CD42b (GP Ib), CD 51/CD61 ((v (3, or vitronectin receptor), CD62p (P-selectin), CD107a (lysosome associated membrane protein-1; LAMP-1), CD 107b (LAMP-2), CD151 (platelet/endothelial tetraspan antigen-3; PETA-3), and PAC-1 for fibrinogen-platelet (PharMingen, San Diego, Calif.). Platelet-leukocyte interactions were assessed by using dual antibodies for a pan-platelet marker (CD 151), together with CD14, a monocyte/macrophage marker. The blood-citrate mixture (50 μl) was diluted with 450 μl Tris buffered saline (TBS) (10 mmol/L Tris, 0.15 mol/L sodium chloride) and mixed by gently inverting an Eppendorf tube 2 times. Five μl of the corresponding antibodies were then added to each solution and the samples were incubated for 30 minutes. After incubation, 400 μl of 2% buffered paraformaldehyde was added for fixation. The samples were analyzed by a Becton Dickinson FACScan flow cytometer set up to measure fluorescent light scatter, as described in Gurbel P A, et al., J Am Coll Cardiol. 1998; 31: 1466-1473. The data were collected in list mode files and then analyzed. P selectin was expressed as percent positive cells as described in Gurbel P A, et al, Am Heart J 2000; 139: 320-328. Other antigens were expressed as log mean fluorescence intensity.

[4] = tested on: platelet/endothelial cell adhesion molecule-1 (PECAM-1, CD31); assay: Whole blood flow cytometry, PECAM-1 expression; assay type: cell-based, human; settings: for Expression of platelet/endothelial cell adhesion molecule-1 (PECAM-1, CD31): baseline 69.2 ± 10.3
Method: as §1, §2

[5] = tested on: human platelets (platelet-rich plasma); assay: Platelet-rich plasma aggregation induced by 5 μM epinephrine; assay type: cell-based; settings: for Platelet rich plasma platelet aggregation induced by 5 μM epinephrine: 60 minutes at 37° C., baseline 78 ± 10
Method: as §1
The citrate and whole blood mixture were centrifuged at 1200 g for 5 minutes in order to obtain platelet-rich plasma (PRP) which was kept at room temperature for use within 1 hour. Platelet counts were determined for each PRP sample with a Coulter Counter ZM (Coulter Co., Hialeah, Fla.). Platelet numbers were adjusted to 3.50×10 ^8/ml with homologous platelet-poor plasma. Platelet aggregation (PA) was induced by 5 μM ADP, and 5 μM epinephrine. All agonists were obtained from Chronolog Corporation (Havertown, Pa.). Aggregation studies were performed using a 4 channel Chronolog Lumi-Aggregometer (model 560-Ca). Aggregation was expressed as the maximum percentage of light transmittance change (% max) from the baseline at the end of the recording time, using platelet-poor plasma as a reference. Aggregation curves were recorded for 6 minutes and analyzed according to internationally established standards. Ruggeri Z M, Semin Hemat 1994; 31: 229-239.

[6] = patients undergoing valsartan therapy; cited from earlier work
[7] = tested on: platelet glycoprotein IIb/IIIa antigen (GPIIb, CD41); assay: Whole blood flow cytometry, GP IIb/IIIa antigen expression; assay type: cell-based, human; settings: for Expression of platelet glycoprotein IIb/IIIa antigen (GPIIb, CD41): baseline 521.8 ± 98.2
Method: as §1, §2

Question: For `CC(O)CCC(=O)N(Cc1ccc(-c2ccccc2-c2nnn[nH]2)cc1)[C@H](C(=O)O)C(C)C` (stereo partly drawn) [Valeryl 4-hydroxy valsartan, (S)-2{(4-Hydroxy-pentanoyl)-[2′-(1H-tetrazol-5-yl)-biphenyl-4-ylmethyl]amino}-3-methyl-butyric Acid], which “Ultegra Analyzer” value ([1]; drug 10 nM) is on record?
Answer: The value was 177 ± 23 platelet activation units.

Question: What about the “Ultegra Analyzer” value ([1]; drug 100 nM) of the same molecule?
Answer: The value was 181 ± 31 platelet activation units.

Question: And the “Ultegra Analyzer” value ([1]; drug 1 μM)?
Answer: Its value is 134 ± 29 platelet activation units.

Question: And the “Ultegra Analyzer” value ([1]; drug 10 μM)?
Answer: Its value is 119 ± 38 platelet activation units.

Question: What about the “Ultegra Analyzer” value ([1]; drug 100 μM) of the same molecule?
Answer: Its value is 168 ± 35 platelet activation units.

Question: And the “Effect on collagen-induced platelet aggregation in whole blood (in words)” value ([2]; 1 μM collagen as printed in text, within the range of therapeutic activity)?
Answer: The value was “inhibited aggregation”.

Question: What about the “Whole blood impedance platelet aggregation induced by 1 μg/ml collagen” value ([2]; drug 10 nM) of the same molecule?
Answer: The value was 32 ± 8 ohms.

Question: And the “Whole blood impedance platelet aggregation induced by 1 μg/ml collagen” value ([2]; drug 100 nM)?
Answer: The value was 31 ± 9 ohms.

Question: What about the “Whole blood impedance platelet aggregation induced by 1 μg/ml collagen” value ([2]; drug 1 μM) of the same molecule?
Answer: The value was 14 ± 6 ohms.

Question: What about the “Whole blood impedance platelet aggregation induced by 1 μg/ml collagen” value ([2]; drug 10 μM) of the same molecule?
Answer: Its value is 16 ± 8 ohms.

Question: What about the “Whole blood impedance platelet aggregation induced by 1 μg/ml collagen” value ([2]; drug 100 μM) of the same molecule?
Answer: The value was 17 ± 8 ohms.

Question: And the “Expression of platelet/endothelial tetraspan antigen -3 (PETA-3, CD151)” value ([3]; drug 10 nM)?
Answer: Its value is 89.4 ± 18.2 log MFI.

Question: And the “Expression of platelet/endothelial tetraspan antigen -3 (PETA-3, CD151)” value ([3]; drug 100 nM)?
Answer: Its value is 92.7 ± 22.2 log MFI.

Question: And the “Expression of platelet/endothelial tetraspan antigen -3 (PETA-3, CD151)” value ([3]; drug 1 μM)?
Answer: Its value is 90.5 ± 15.7 log MFI.

Question: And the “Expression of platelet/endothelial tetraspan antigen -3 (PETA-3, CD151)” value ([3]; drug 10 μM)?
Answer: The value was 84.2 ± 31.1 log MFI.

Question: And the “Expression of platelet/endothelial tetraspan antigen -3 (PETA-3, CD151)” value ([3]; drug 100 μM)?
Answer: The value was 93.4 ± 27.4 log MFI.

Question: And the “Effect on PETA-3 (CD151) (in words)” value ([3]; whole blood flow cytometry)?
Answer: The value was “not associated with any effect”.

Question: And the “Expression of platelet/endothelial cell adhesion molecule-1 (PECAM-1, CD31)” value ([4]; drug 10 nM)?
Answer: Its value is 74.2 ± 13.4 log MFI.

Question: What about the “Expression of platelet/endothelial cell adhesion molecule-1 (PECAM-1, CD31)” value ([4]; drug 100 nM) of the same molecule?
Answer: Its value is 69.7 ± 15.1 log MFI.

Question: What about the “Expression of platelet/endothelial cell adhesion molecule-1 (PECAM-1, CD31)” value ([4]; drug 1 μM) of the same molecule?
Answer: The value was 70.3 ± 16.4 log MFI.

Question: And the “Expression of platelet/endothelial cell adhesion molecule-1 (PECAM-1, CD31)” value ([4]; drug 10 μM)?
Answer: The value was 73.1 ± 9.3 log MFI.

Question: And the “Expression of platelet/endothelial cell adhesion molecule-1 (PECAM-1, CD31)” value ([4]; drug 100 μM)?
Answer: Its value is 71.2 ± 15.5 log MFI.

Question: And the “Effect on PECAM-1 (CD31) (in words)” value ([4]; whole blood flow cytometry)?
Answer: The value was “not associated with any effect”.

Question: And the “Effect on epinephrine-induced platelet aggregation (in words)” value ([5]; PRP, 5 μM epinephrine, preincubation with escalating doses 10 nM to 100 μM)?
Answer: The value was “inhibited epinephrine-induced aggregation in concentration 1 μM and 10 μM”.

Question: What about the “Platelet rich plasma platelet aggregation induced by 5 μM epinephrine” value ([5]; drug 10 nM) of the same molecule?
Answer: The value was 77 ± 10%.

Question: What about the “Platelet rich plasma platelet aggregation induced by 5 μM epinephrine” value ([5]; drug 100 nM) of the same molecule?
Answer: The value was 76 ± 9%.

Question: And the “Platelet rich plasma platelet aggregation induced by 5 μM epinephrine” value ([5]; drug 1 μM)?
Answer: The value was 54 ± 11%.

Question: And the “Platelet rich plasma platelet aggregation induced by 5 μM epinephrine” value ([5]; drug 10 μM)?
Answer: The value was 56 ± 13%.

Question: What about the “Platelet rich plasma platelet aggregation induced by 5 μM epinephrine” value ([5]; drug 100 μM) of the same molecule?
Answer: The value was 52 ± 9%.

Question: And the “Effect on epinephrine-induced aggregation, FIG. 1 aggregation curves (in words)” value ([5]; one study patient, incubation with 1 μM)?
Answer: The value was “blocks epinephrine-induced aggregation”.

Question: And the “Level in plasma as share of valsartan levels” value [6]?
Answer: Its value is 10%.

Question: What about the “Expression of platelet glycoprotein IIb/IIIa antigen (GPIIb, CD41)” value ([7]; drug 10 nM) of the same molecule?
Answer: Its value is 505.6 ± 77.8 log MFI.

Question: What about the “Expression of platelet glycoprotein IIb/IIIa antigen (GPIIb, CD41)” value ([7]; drug 100 nM) of the same molecule?
Answer: The value was 432.7 ± 116.8 log MFI.

Question: And the “Expression of platelet glycoprotein IIb/IIIa antigen (GPIIb, CD41)” value ([7]; drug 1 μM)?
Answer: The value was 427.2 ± 114.1 log MFI.

Question: What about the “Expression of platelet glycoprotein IIb/IIIa antigen (GPIIb, CD41)” value ([7]; drug 10 μM) of the same molecule?
Answer: The value was 515.9 ± 156.2 log MFI.

Question: What about the “Expression of platelet glycoprotein IIb/IIIa antigen (GPIIb, CD41)” value ([7]; drug 100 μM) of the same molecule?
Answer: The value was 529.3 ± 121.8 log MFI.

Question: What about the “Effect on expression of GP IIb/IIIa (CD 41) (in words)” value ([7]; whole blood flow cytometry) of the same molecule?
Answer: The value was “slightly reduced”.
